Experimental data as given in PubChem BioAssay AID248 (DTP/NCI, 2004).
Where “and” joins values, the source holds several entries; their conditions need not be identical. Identical values can stand only once. Inconclusive results and toxic doses are left out.

Test system: L1210 leukemia ip in BDF1 mice, survival T/C
Assay: NCI In Vivo Anticancer Drug Screen. Data for tumor model L1210 Leukemia (intraperitoneal) in B6D2F1 (BDF1) mice
Conditions: endpoint: mean survival time, higher = longer survival
Summary of the method: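 Mice bearing the transplanted tumor received compound or vehicle. Survival of the treated group was divided by that of the vehicle-treated control group to give the ratio.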

[1] = dose: 50.0 mg/kg/injection, schedule: Q01DX001 (ip), vehicle: carboxymethylcellulose (CMC)
[2] = dose: 100.0 mg/kg/injection, schedule: Q01DX001 (ip), vehicle: carboxymethylcellulose (CMC)
[3] = dose: 200.0 mg/kg/injection, schedule: Q01DX001 (ip), vehicle: carboxymethylcellulose (CMC)
[4] = dose: 400.0 mg/kg/injection, schedule: Q01DX001 (ip), vehicle: carboxymethylcellulose (CMC)
[5] = dose: 100.0 mg/kg/injection, schedule: Q04DX003 (ip), vehicle: saline
[6] = dose: 200.0 mg/kg/injection, schedule: Q04DX003 (ip), vehicle: saline
[7] = dose: 400.0 mg/kg/injection, schedule: Q04DX003 (ip), vehicle: saline
[8] = dose: 100.0 mg/kg/injection, schedule: Q01DX009 (ip), vehicle: saline with Tween-80
[9] = dose: 200.0 mg/kg/injection, schedule: Q01DX009 (ip), vehicle: saline with Tween-80
[10] = dose: 100.0 mg/kg/injection, schedule: Q04DX003 (ip), vehicle: saline with Tween-80
[11] = dose: 200.0 mg/kg/injection, schedule: Q04DX003 (ip), vehicle: saline with Tween-80
[12] = dose: 400.0 mg/kg/injection, schedule: Q01DX009 (ip), vehicle: saline with Tween-80
[13] = dose: 400.0 mg/kg/injection, schedule: Q04DX003 (ip), vehicle: saline with Tween-80
[14] = dose: 100.0 mg/kg/injection, schedule: Q04DX003 (ip), vehicle: Klucel (hydroxypropylcellulose) (HPC)
[15] = dose: 200.0 mg/kg/injection, schedule: Q04DX003 (ip), vehicle: Klucel (hydroxypropylcellulose) (HPC)
[16] = dose: 100.0 mg/kg/injection, schedule: Q01DX001 (ip), vehicle: saline
[17] = dose: 200.0 mg/kg/injection, schedule: Q01DX001 (ip), vehicle: saline
[18] = dose: 100.0 mg/kg/injection, schedule: Q01DX009 (ip), vehicle: saline
[19] = dose: 200.0 mg/kg/injection, schedule: Q01DX009 (ip), vehicle: saline

## OCC(O)C(O)/C=N/N(Cc1ccccc1)c1ccccc1 (stereo not given)
[1]
  T/C: 103 % of control
[2]
  T/C: 101 % of control
[3]
  T/C: 101 % of control
[4]
  T/C: 97 % of control

## COc1ccc(CCN=C(c2ccccc2)c2ccccc2)cc1OC
[5]
  T/C: 94 % of control
[6]
  T/C: 94 % of control
[7]
  T/C: 97 % of control

## CN(C)c1cc2c3ccccc3ccc2c2ccccc12
dose: 100.0 mg/kg/injection, schedule: Q01DX001 (ip), vehicle: olive oil, sesame oil, peanut oil
  T/C: 100 % of control
dose: 200.0 mg/kg/injection, schedule: Q01DX001 (ip), vehicle: olive oil, sesame oil, peanut oil
  T/C: 103 % of control
dose: 400.0 mg/kg/injection, schedule: Q01DX001 (ip), vehicle: olive oil, sesame oil, peanut oil
  T/C: 102 % of control

## CC(=O)Oc1cccc(OC(=O)Nc2ccccc2F)c1
dose: 25.0 mg/kg/injection, schedule: Q01DX009 (ip), vehicle: saline with Tween-80
  T/C: 103 % of control
dose: 50.0 mg/kg/injection, schedule: Q01DX009 (ip), vehicle: saline with Tween-80
  T/C: 108 % of control
[8]
  T/C: 103 % of control and 113 % of control
[9]
  T/C: 95 % of control and 103 % of control

## CC(C)CCCBr
[8]
  T/C: 101 % of control
[10]
  T/C: 94 % of control
[9]
  T/C: 100 % of control
[11]
  T/C: 95 % of control
[12]
  T/C: 94 % of control
[13]
  T/C: 99 % of control

## Nc1cccc(Br)n1
dose: 37.5 mg/kg/injection, schedule: Q04DX002 (ip), vehicle: saline with Tween-80
  T/C: 88 % of control
dose: 75.0 mg/kg/injection, schedule: Q04DX002 (ip), vehicle: saline with Tween-80
  T/C: 91 % of control
dose: 150.0 mg/kg/injection, schedule: Q04DX002 (ip), vehicle: saline with Tween-80
  T/C: 104 % of control

## Cc1ccc2c(C)c3c(ccc4ccccc43)c[n+]2c1
dose: 0.36 mg/kg/injection, schedule: Q01DX015 (ip), vehicle: saline
  T/C: 110 % of control
dose: 0.55 mg/kg/injection, schedule: Q01DX015 (ip), vehicle: saline
  T/C: 104 % of control
dose: 0.83 mg/kg/injection, schedule: Q01DX015 (ip), vehicle: saline
  T/C: 110 % of control
dose: 1.25 mg/kg/injection, schedule: Q01DX015 (ip), vehicle: saline
  T/C: 105 % of control and 112 % of control
dose: 2.5 mg/kg/injection, schedule: Q01DX015 (ip), vehicle: saline
  T/C: 103 % of control
dose: 2.5 mg/kg/injection, schedule: Q04DX003 (ip), vehicle: saline
  T/C: 101 % of control
dose: 5.0 mg/kg/injection, schedule: Q01DX001 (ip), vehicle: saline
  T/C: 94 % of control
dose: 5.0 mg/kg/injection, schedule: Q01DX015 (ip), vehicle: saline
  T/C: 111 % of control
dose: 5.0 mg/kg/injection, schedule: Q04DX003 (ip), vehicle: saline
  T/C: 95 % of control
dose: 10.0 mg/kg/injection, schedule: Q01DX001 (ip), vehicle: saline
  T/C: 96 % of control
dose: 10.0 mg/kg/injection, schedule: Q01DX015 (ip), vehicle: saline
  T/C: 110 % of control and 117 % of control
dose: 10.0 mg/kg/injection, schedule: Q04DX003 (ip), vehicle: saline
  T/C: 111 % of control
dose: 20.0 mg/kg/injection, schedule: Q01DX001 (ip), vehicle: saline
  T/C: 102 % of control
dose: 20.0 mg/kg/injection, schedule: Q04DX003 (ip), vehicle: saline
  T/C: 113 % of control

## CN1C(=O)CCN(CCCN2CCC(=O)N(C)C2=S)C1=S
dose: 100.0 mg/kg/injection, schedule: Q04DX002 (ip), vehicle: saline with Tween-80
  T/C: 95 % of control
dose: 200.0 mg/kg/injection, schedule: Q04DX002 (ip), vehicle: saline with Tween-80
  T/C: 95 % of control
dose: 400.0 mg/kg/injection, schedule: Q04DX002 (ip), vehicle: saline with Tween-80
  T/C: 88 % of control

## CC(C)N1C(=O)c2cccc3c(Br)ccc(c23)C1=O
[14]
  T/C: 96 % of control
[15]
  T/C: 97 % of control

## O=S(=O)(/C(=C\c1ccccc1)c1ccccc1)C(Cl)c1ccccc1 (stereo not given)
[16]
  T/C: 96 % of control
[17]
  T/C: 110 % of control
dose: 400.0 mg/kg/injection, schedule: Q01DX001 (ip), vehicle: saline
  T/C: 95 % of control

## CC(OC(=O)c1ccccc1C(=O)O)c1ccccc1 (stereo not given)
[2]
  T/C: 93 % of control
[3]
  T/C: 96 % of control
[4]
  T/C: 96 % of control

## COc1cc2c(c(OC)c1OC)CN(CC1COc3ccccc3O1)CC2 (stereo not given)
[10]
  T/C: 98 % of control
[11]
  T/C: 101 % of control
[13]
  T/C: 96 % of control

## O=C(Cn1ccc(=O)[nH]c1=O)N1CCC2(CC1)SSC1(CCN(C(=O)Cn3ccc(=O)[nH]c3=O)CC1)S2
[18]
  T/C: 106 % of control
[5]
  T/C: 97 % of control
[19]
  T/C: 98 % of control
[6]
  T/C: 95 % of control
dose: 400.0 mg/kg/injection, schedule: Q01DX009 (ip), vehicle: saline
  T/C: 93 % of control
[7]
  T/C: 92 % of control

## CCNCCC#N
[18]
  T/C: 111 % of control
[14]
  T/C: 108 % of control
[19]
  T/C: 107 % of control
[15]
  T/C: 107 % of control
dose: 400.0 mg/kg/injection, schedule: Q04DX003 (ip), vehicle: Klucel (hydroxypropylcellulose) (HPC)
  T/C: 111 % of control

## COc1ccc(OCC(O)CN2CCN(c3ccc(Cl)cc3)CC2)cc1 (stereo not given)
[10]
  T/C: 93 % of control
[11]
  T/C: 90 % of control
[13]
  T/C: 98 % of control

## Clc1nc(Cl)c(Nc2ccn[nH]2)nc1Cl
[8]
  T/C: 91 % of control
[9]
  T/C: 86 % of control
[12]
  T/C: 94 % of control

## OC1(C#CC2(O)CCCC2)CCCC1
[1]
  T/C: 98 % of control
[2]
  T/C: 95 % of control
[3]
  T/C: 87 % of control
[4]
  T/C: 93 % of control

## O=C(CN1CC1)NCc1ccc(CNC(=O)CN2CC2)cc1
dose: 1.5 mg/kg/injection, schedule: Q01DX009 (ip), vehicle: carboxymethylcellulose (CMC)
  T/C: 111 % of control
dose: 6.0 mg/kg/injection, schedule: Q01DX009 (ip), vehicle: carboxymethylcellulose (CMC)
  T/C: 106 % of control
dose: 6.25 mg/kg/injection, schedule: Q01DX009 (ip), vehicle: carboxymethylcellulose (CMC)
  T/C: 118 % of control
dose: 7.3 mg/kg/injection, schedule: Q01DX001 (ip), vehicle: carboxymethylcellulose (CMC)
  T/C: 115 % of control
dose: 11.0 mg/kg/injection, schedule: Q01DX001 (ip), vehicle: carboxymethylcellulose (CMC)
  T/C: 121 % of control
dose: 11.1 mg/kg/injection, schedule: Q01DX009 (ip), vehicle: carboxymethylcellulose (CMC)
  T/C: 158 % of control
dose: 12.5 mg/kg/injection, schedule: Q01DX009 (ip), vehicle: carboxymethylcellulose (CMC)
  T/C: 183 % of control
dose: 16.6 mg/kg/injection, schedule: Q01DX009 (ip), vehicle: carboxymethylcellulose (CMC)
  T/C: 163 % of control
dose: 25.0 mg/kg/injection, schedule: Q01DX009 (ip), vehicle: carboxymethylcellulose (CMC)
  T/C: 153 % of control and 183 % of control
dose: 37.5 mg/kg/injection, schedule: Q01DX001 (ip), vehicle: carboxymethylcellulose (CMC)
  T/C: 155 % of control

## COc1cc2c(cc1OC)C1CC(=O)C(CC(C)C)CN1CC2 (stereo not given)
dose: 25.0 mg/kg/injection, schedule: Q01DX009 (ip), vehicle: Klucel (hydroxypropylcellulose) (HPC)
  T/C: 105 % of control
dose: 50.0 mg/kg/injection, schedule: Q01DX009 (ip), vehicle: Klucel (hydroxypropylcellulose) (HPC)
  T/C: 103 % of control
dose: 100.0 mg/kg/injection, schedule: Q01DX009 (ip), vehicle: Klucel (hydroxypropylcellulose) (HPC)
  T/C: 117 % of control
[8]
  T/C: 102 % of control
[9]
  T/C: 90 % of control
[12]
  T/C: 89 % of control

## Cc1cc(C)c(C(=O)C(=S)N2CCOCC2)c(C)c1
dose: 200.0 mg/kg/injection, schedule: Q01DX009 (ip), vehicle: acetone
  T/C: 90 % of control
dose: 400.0 mg/kg/injection, schedule: Q01DX009 (ip), vehicle: acetone
  T/C: 96 % of control

## CC(=O)NN(C)C(C)=O
dose: 12.5 mg/kg/injection, schedule: Q04DX003 (ip), vehicle: saline
  T/C: 110 % of control
dose: 25.0 mg/kg/injection, schedule: Q04DX003 (ip), vehicle: saline
  T/C: 120 % of control
dose: 50.0 mg/kg/injection, schedule: Q04DX003 (ip), vehicle: saline
  T/C: 112 % of control
[5]
  T/C: 101 % of control
dose: 130.0 mg/kg/injection, schedule: Q04DX003 (ip), vehicle: saline
  T/C: 105 % of control
[6]
  T/C: 96 % of control and 120 % of control
dose: 300.0 mg/kg/injection, schedule: Q04DX003 (ip), vehicle: saline
  T/C: 100 % of control
[7]
  T/C: 106 % of control

## COc1ccc(OCCC(=O)O)cc1
[16]
  T/C: 90 % of control
[17]
  T/C: 93 % of control
